For ten compounds, EC50 and IC50 results are on record in ChEMBL document CHEMBL1130211, “Synthesis and anti-hepatitis B virus activity of 9-(2-deoxy-2-fluoro-beta-L-arabinofuranosyl) purine nucleosides” (J Med Chem, 1997).

What all share (assay type): functional, cell-based
Details in all cases: Homo sapiens

In experiment [1] the test system is HepG2. The experiment is described as follows: compound was tested in vitro for anti HBV activity in HepG2 2.2.15 cells.
For experiment [2], the system named is HepG2. The experiment can be described thus: The cytotoxicity against HepG2 2.2.15 cells expressed as IC50.
In experiment [3] the test system is HepG2. The experiment can be described thus: The cytotoxicity against 2.2.15 cells expressed as IC50.
In a further experiment the test system is CCRF-CEM. The experiment is described as follows: The cytotoxicity against CEM cells.

`OC[C@@H]1O[C@H](n2cnc3cncnc32)[C@H](F)[C@H]1O`: the EC50 (as a rule, the concentration that produces a half-maximal response) with HepG2 [1] was over 10 µM. In addition, the IC50 (commonly the concentration at which inhibition is half-maximal) with HepG2 [2] was over 200 µM.

With `OC[C@@H]1O[C@H](n2cnc3c(S)ncnc32)[C@H](F)[C@H]1O`, in the experiment with HepG2 [1], the EC50 is over 10 µM. This compound yielded an IC50 in the experiment with HepG2 [3] of over 200 µM.

Turning to `CN(C)c1ncnc2c1ncn2[C@H]1O[C@@H](CO)[C@H](O)[C@H]1F`, the 50% effective concentration (EC50) in the experiment with HepG2 [1] is over 10 µM. Further, in the experiment with HepG2 [2], the IC50 was over 200 µM.

Take `CNc1ncnc2c1ncn2[C@H]1O[C@@H](CO)[C@H](O)[C@H]1F`: the EC50 in the experiment on HepG2 [1] is over 10 µM. This compound returned an IC50 with HepG2 [2] of over 200 µM.

Compound `Nc1nc(Cl)nc2c1ncn2[C@@H]1O[C@H](CO)[C@@H](O)[C@H]1F` had an EC50 with HepG2 [1] of over 10 µM. For the same compound, in the experiment on HepG2 [3], the IC50 was over 200 µM.

In the case of `OC[C@H]1O[C@@H](n2cnc3c(O)ncnc32)[C@H](F)[C@@H]1O`, the IC50 in the experiment with CCRF-CEM was over 100 µM; in the experiment on HepG2 [3] it was over 200 µM. This compound came in with an EC50 in the experiment on HepG2 [1] of 8 µM.

Compound `Nc1nc(N)c2ncn([C@@H]3O[C@H](CO)[C@@H](O)[C@H]3F)c2n1` returned an EC50 with HepG2 [1] of over 10 µM. The same compound showed an IC50 in the experiment on HepG2 [3] of over 180 µM.

`OC[C@H]1O[C@@H](n2cnc3c(NC4CC4)ncnc32)[C@H](F)[C@@H]1O` had an EC50 in the experiment with HepG2 [1] of over 10 µM. Moreover, in the experiment with HepG2 [2], the IC50 was over 200 µM.

Take `Nc1ncnc2c1ncn2[C@@H]1O[C@H](CO)[C@@H](O)[C@H]1F` [2'-BETA-FLUORO-2',3'-DEOXYADENOSINE]: the IC50 was 90 µM in the experiment on CCRF-CEM and over 200 µM in the experiment on HepG2 [2]. The compound also displayed an EC50 with HepG2 [1] of 1.5 µM.

In the case of `Nc1nc(O)c2ncn([C@@H]3O[C@H](CO)[C@@H](O)[C@@H]3F)c2n1` [F-ARAG], the IC50 is over 100 µM in the experiment with CCRF-CEM and over 200 µM in the experiment on HepG2 [3]. This compound also displayed an EC50 with HepG2 [1] of over 10 µM.
